We go through 39 compounds from patent US11465987B2, “Compounds for treatment of cancer” (ONCTERNAL THERAPEUTICS, INC., priority 2012, dated 2022).

Assay [1] deals with DU 145 human prostate cancer cell line. Description: Cytotoxicity (SRB) assay, DU 145. The assay is classed as cell-based. From the text: (§1) Cells were stained with SRB solution.
Assay [2] deals with melanoma and prostate cancer cell lines. Description: Antiproliferative activity summarised over the cell line panel (range or average). The assay is classed as cell-based. The conditions noted are these: for antiproliferative activity in words: Tables 1-3.
The test system of assay [3] is PC-3 human prostate cancer cell line. Description: cells. Conditions: Homo sapiens.
Text: as §1

Assay [4] deals with LNCaP human prostate cancer cell line. Put plainly: Cytotoxicity (SRB) assay, LNCaP. The format is cell-based.
Text: as §1

The subject of assay [5] is PPC-1 human prostate cancer cell line. Put plainly: Cytotoxicity (SRB) assay, PPC-1. Conditions: Homo sapiens, PPC-1, Table 6A; read-out: IC50 ± SEM, PPC-1 (converted). The format is cell-based.
Text: as §1

Setting [6] is: read-out: IC50 PC-3, SRB assay, prostate cancer PC-3.
The mark [7] stands for this setting: Tables 1-2, read-out: IC50 (range or bound over tested cell lines).
The mark [8] stands for this setting: range over prostate cancer cell lines, read-out: IC50 range against prostate cancer cells.
[9] abbreviates: read-out: IC50 ± SEM, PC-3, Table 13.
Where [10] appears, read: Tables 11-13, read-out: IC50 (average of all seven cell lines).
Setting [11] is: Homo sapiens, DU-145, Table 6A, read-out: IC50 ± SEM, DU 145.
The mark [12] stands for this setting: read-out: IC50 ± SEM, PC-3, Table 6A.

Where two headings read alike, the source gives them in different places. Where only a bound is given, the exact number is not on record here.

Take “4-Methoxyphenyl(4-(3,4,5-trimethoxyphenyl)-1H-imidazol-2-yl)methanone and 4-methoxyphenyl(5-(3,4,5-trimethoxyphenyl)-1H-imidazol-2-yl)methanone [70y]”: the IC50 in assay [1] (Table 13B, read-out: inhibitory effects, DU145) is more than 50 µM.

Take `COc1cc(C(=O)c2cccc(-c3ccccc3)c2)cc(OC)c1OC` [1a, Biphenyl-3-yl(3,4,5-trimethoxyphenyl)methanone]: the “antiproliferative activity in words” value in assay [2] was “hundreds of nanomolar range”.

For the compound `COc1cc(C(=O)c2cc(-c3ccccc3)ncn2)cc(OC)c1OC` [1b, (6-Phenylpyrimidin-4-yl)(3,4,5-trimethoxyphenyl)methanone], the IC50 in assay [3] (setting [6]) is 8.3 µM; in assay [2] (setting [7]), 3.7 to 8.3 µM.

In the case of `COc1cc(C(=O)c2ccc(-c3ccccc3)o2)cc(OC)c1OC` [1d, (5-Phenylfuran-2-yl)(3,4,5-trimethoxyphenyl)methanone], the IC50 in assay [3] (setting [6]) is 0.021 µM; in assay [2] (setting [8]), 0.012 to 0.035 µM.

As for `COc1cc(C(=O)c2cnc(-c3ccccc3)s2)cc(OC)c1OC` [1e, (2-Phenylthiazol-5-yl)(3,4,5-trimethoxyphenyl)methanone], the IC50 in assay [2] (setting [7]) is more than 10 µM.

Take `COc1cc(C(=O)c2csc(-c3ccccc3)c2)cc(OC)c1OC` [1f, (5-Phenylthiophen-3-yl)(3,4,5-trimethoxyphenyl)methanone]: the IC50 is 0.012 µM in assay [3] (setting [6]) and 0.012 to 0.035 µM in assay [2] (setting [8]).

As to `COc1cc(C(=O)N2CCC(c3ccccc3)CC2)cc(OC)c1OC` [1g, (4-Phenylpiperidin-1-yl)(3,4,5-trimethoxyphenyl)methanone], the IC50 in assay [2] (setting [7]) was more than 20 µM.

As to `COc1cc(C(=O)c2cc(-c3ccccc3)on2)cc(OC)c1OC` [1i, (5-Phenylisoxazol-3-yl)(3,4,5-trimethoxyphenyl)methanone], the IC50 in assay [2] (setting [7]) is more than 10 µM.

Turning to `COc1cc(C(O)c2csc(-c3ccccc3)n2)cc(OC)c1OC` (stereo not shown) [2b, (2-Phenylthiazol-4-yl)(3,4,5-trimethoxyphenyl)methanol], in assay [3] (setting [6]), the IC50 was more than 10 µM. Moreover, the “antiproliferative activity in words” value in assay [2] was “inactive”.

Consider `COc1cc(/C(=N/O)c2csc(-c3ccccc3)n2)cc(OC)c1OC` [2e-cis, (Z)-(2-Phenylthiazol-4-yl)(3,4,5-trimethoxyphenyl)methanone oxime], for which the IC50 in assay [3] (setting [6]) is 0.12 µM; in assay [2] (setting [7]), 0.1 to 0.3 µM. Besides, the “fold more activity than anti-isomer” value in assay [2] (2e-cis vs 2e-trans) was 10 fold.

Turning to `COc1cc(/C(=N\O)c2csc(-c3ccccc3)n2)cc(OC)c1OC` [2e-trans, (E)-(2-Phenylthiazol-4-yl)(3,4,5-trimethoxyphenyl)methanone oxime], the IC50 in assay [3] (setting [6]) and in assay [2] (setting [7]) was more than 10 µM in each case.

Take `COc1cc(NC(=O)c2csc(-c3ccccc3)n2)cc(OC)c1OC` [2g, 2-Phenyl-N-(3,4,5-trimethoxyphenyl)thiazole-4-carboxamide]: the IC50 in assay [3] (setting [6]) is more than 10 µM; in assay [4] (Homo sapiens, LNCaP, SRB assay, prostate cancer LNCaP, read-out: IC50 LNCaP) it was more than 10 µM.

On to `CNCc1ccc(-c2nc(C(=O)c3cc(OC)c(OC)c(OC)c3)cs2)cc1.Cl` [2s, (2-(4-((Methylamino)methyl)phenyl)thiazol-4-yl)(3,4,5-trimethoxyphenyl)methanone hydrochloride], for which the IC50 is more than 10 µM in assay [1] (Homo sapiens, SRB assay, prostate cancer DU 145, read-out: IC50 DU 145) and more than 10 µM in assay [3] (read-out: IC50 PC-3). The “antiproliferative activity in words” value in assay [2] is “abrogated activity”.

As for `COc1cc(C(=O)c2csc(-c3ccc(CN(C)C)cc3)n2)cc(OC)c1OC.Cl` [2u, (2-(4-((Dimethylamino)methyl)phenyl)thiazol-4-yl)(3,4,5-trimethoxyphenyl)methanone hydrochloride], in assay [3] (setting [6]), the IC50 is more than 10 µM. For the same compound, in assay [2], the “antiproliferative activity in words” value is “abrogated activity”.

Take `COc1cc(C(=O)c2cn(S(=O)(=O)c3ccccc3)c(-c3cc(OC)c(OC)c(OC)c3)n2)cc(OC)c1OC` [11ea, (1-(phenylsulfonyl)-2-(3,4,5-trimethoxyphenyl)-1H-imidazol-4-yl)(3,4,5-trimethoxyphenyl)methanone]: the IC50 was more than 10 µM in assay [3] (setting [9]) and 1 to 50 µM in assay [2] (setting [10]).

`COc1cc(-c2nc(C(=O)c3ccc(F)cc3)cn2S(=O)(=O)c2ccccc2)cc(OC)c1OC` [11eb, (4-fluorophenyl)(1-(phenylsulfonyl)-2-(3,4,5-trimethoxyphenyl)-1H-imidazol-4-yl)methanone]: the IC50 in assay [3] (setting [9]) was more than 10 µM; in assay [2] (setting [10]), 1 to 50 µM.

Take `COc1ccc(-c2nc(C(=O)c3ccc(F)cc3)cn2S(=O)(=O)c2ccccc2)cc1OC` [11hb, (2-(3,4-dimethoxyphenyl)-1-(phenylsulfonyl)-1H-imidazol-4-yl)(4-fluorophenyl)methanone]: the IC50 in assay [3] (setting [9]) was 10 µM; in assay [2] (setting [10]) it was 1 to 50 µM.

Consider `COc1cc(C(=O)c2cn(S(=O)(=O)c3ccccc3)c(-c3ccccc3C(F)(F)F)n2)cc(OC)c1OC` [11ia, (1-(phenylsulfonyl)-2-(2-(trifluoromethyl)phenyl)-1H-imidazol-4-yl)(3,4,5-trimethoxyphenyl)methanone], for which the IC50 in assay [3] (setting [9]) was more than 10 µM; in assay [2] (setting [10]), 1 to 50 µM.

On to `O=C(c1ccc(F)cc1)c1cn(S(=O)(=O)c2ccccc2)c(-c2ccccc2C(F)(F)F)n1` [11ib, (1-(phenylsulfonyl)-2-(2-(trifluoromethyl)phenyl)-1H-imidazol-4-yl)(4-fluorophenyl)methanone], for which the IC50 was more than 10 µM in assay [3] (setting [9]) and 1 to 50 µM in assay [2] (setting [10]).

Take `COc1cc(-c2nc(C(=O)c3ccc(F)cc3)c[nH]2)cc(OC)c1OC` [12eb]: the IC50 in assay [2] (setting [10]) lay in the range of 1 to 50 µM.

As to `COc1cc(C(=O)[C@H]2COC(c3ccccc3)=N2)cc(OC)c1OC` [35a, (2R)-(2-Phenyl-4,5-dihydro-oxazol-4-yl)-(3,4,5-trimethoxy-phenyl)-methanone], the “antiproliferative activity in words” value in assay [2] was “hundreds of nanomolar range”.

Regarding `COc1cc(C(=O)c2coc(-c3ccccc3)n2)cc(OC)c1OC` [36a, (2-Phenyl-oxazol-4-yl)-(3,4,5-trimethoxy-phenyl)-methanone], in assay [2], the “antiproliferative activity in words” value is “hundreds of nanomolar range”.

For the compound `COc1cc(C(=O)c2csc(-c3ccc4[nH]ccc4c3)n2)cc(OC)c1OC` [66a], the IC50 is 0.007 µM in assay [3] (setting [6]) and 0.007 to 0.025 µM in assay [2] (read-out: IC50 (range over tested cell lines)).

For the compound `COc1cc(C(=O)c2nc(-c3ccc(C)cc3)c[nH]2)cc(OC)c1OC` [70f, (4-p-Tolyl-1H-imidazol-2-yl)(3,4,5-trimethoxyphenyl)methanone and (5-p-tolyl-H-imidazol-2-yl)(3,4,5-trimethoxyphenyl)methanone], the IC50 in assay [4] (Table 13A, read-out: inhibitory effects, LNCaP) was 0.013 µM.

Regarding `COc1cc(C(=O)c2csc(-c3ccccc3)n2)cc(OC)c1OCc1ccccc1` [compound 9], the IC50 in assay [1] (setting [11]), in assay [3] (setting [12]) and in assay [5] was approximately 10 µM in each case.

With `Cc1ccc(-c2nc(C(=O)c3ccc(F)cc3)cs2)cc1` [compound 11], the IC50 in assay [1] (setting [11]), in assay [3] (setting [12]) and in assay [5] was more than 10 µM in each case.

In the case of `O=C(c1ccc(F)cc1)c1csc(-c2ccccc2)n1` [compound 12], the IC50 in assay [1] (setting [11]), in assay [3] (setting [12]) and in assay [5] was more than 10 µM throughout.

Turning to `O=C(c1ccc(OC(F)(F)F)cc1)c1csc(-c2ccccc2)n1` [compound 13], the IC50 in assay [1] (setting [11]), in assay [3] (setting [12]) and in assay [5] was more than 10 µM each time.

On to `O=C(c1ccc(F)cc1)c1csc(-c2ccc(F)cc2)n1` [compound 14], for which the IC50 in assay [1] (setting [11]), in assay [3] (setting [12]) and in assay [5] was more than 10 µM each time.

As to `O=C(c1csc(-c2cc(F)c(F)c(F)c2)n1)c1c(F)c(F)c(F)c(F)c1F` [compound 16], the IC50 in assay [1] (setting [11]), in assay [3] (setting [12]) and in assay [5] was more than 10 µM in each case.

Consider `COc1cc(C(=O)c2csc(-c3ccccc3)n2)cc(OC)c1OC(=O)CCl` [compound 18], for which the IC50 in assay [1] (setting [11]), in assay [3] (setting [12]) and in assay [5] was approximately 10 µM in each case.

As to `O=C(c1ccc2c(c1)OCO2)N1CCC(c2ccccc2)CC1` [compound 19], the IC50 in assay [1] (setting [11]), in assay [3] (setting [12]) and in assay [5] was more than 20 µM each time.

`O=C(c1ccc(F)cc1)N1CCC(c2ccccc2)CC1` [compound 22]: the IC50 in assay [1] (setting [11]), in assay [3] (setting [12]) and in assay [5] was more than 20 µM in each case.

With `COc1cc(C(=O)c2csc(-c3ccccc3)n2)cc(OC)c1OC(=O)C(F)(F)F` [compound 23], the IC50 in assay [1] (setting [11]), in assay [3] (setting [12]) and in assay [5] was approximately 10 µM throughout.

For `COc1cc(-c2nc(C(=O)c3ccc(F)cc3)cn2C(=O)c2ccc(F)cc2)cc(OC)c1OC` [compound 30], the IC50 in assay [1] (setting [11]), in assay [3] (setting [12]) and in assay [5] was more than 10 µM throughout.

Regarding `O=C(c1cc(O)c(O)c(O)c1)c1csc(-c2ccccc2)n1` [compound 33], the IC50 in assay [1] (setting [11]), in assay [3] (setting [12]) and in assay [5] was more than 2 µM in each case.

On to `COc1cc(C(=O)c2csc(-c3ccccc3)n2)cc(OC)c1O` [compound 34], for which the IC50 in assay [1] (setting [11]), in assay [3] (setting [12]) and in assay [5] was more than 10 µM in each case.

Turning to `c1ccc(Nc2nccn2C(c2ccccc2)(c2ccccc2)c2ccccc2)cc1` [d, N-Phenyl-1-trityl-1H-imidazol-2-amine], in assay [3] (setting [6]), the IC50 was more than 1 µM.

For the compound `COc1cc(C(=O)c2cn(C(c3ccccc3)(c3ccccc3)c3ccccc3)c(Nc3ccccc3)n2)cc(OC)c1OC` [e, (2-(Phenylamino)-1-trityl-1H-imidazol-4-yl)(3,4,5 trimethoxyphenyl)methanone], the IC50 in assay [3] (setting [6]) is more than 1 µM.
